Test results from ChEMBL document CHEMBL4261580, “Novel antitumor compound optimized from natural saponin Albiziabioside A induced caspase-dependent apoptosis and ferroptosis as a p53 activator through the mitochondrial pathway” (Eur J Med Chem, 2018).

Columns and labels:
Format in all cases: functional, cell-based
[1] = system: HCT-116; experiment: Antiproliferative activity against human HCT116 cells after 72 hrs by MTT assay; details: HCT-116, 72 h
[2] = system: HepG2; experiment: Antiproliferative activity against human HepG2 cells after 72 hrs by MTT assay; details: HepG2, 72 h
[3] = system: MCF7; experiment: Antiproliferative activity against human MCF7 cells after 72 hrs by MTT assay; details: MCF7, 72 h
[4] = system: A549; experiment: Antiproliferative activity against human A549 cells after 72 hrs by MTT assay; details: A549, 72 h
[5] = system: MGC-803; experiment: Antiproliferative activity against human MGC803 cells after 72 hrs by MTT assay; details: MGC-803, 72 h

Compound | IC50 [1] [µM] | IC50 [2] [µM] | IC50 [3] [µM] | IC50 [4] [µM] | IC50 [5] [µM]
COc1ccc(-n2cc(COC(=O)[C@]34CCC(C)(C)C[C@H]3C3=CC[C@@H]5[C@@]6(C)CC[C@H](O[C@@H]7O[C@H](CO[C@@H]8OC[C@H](O)[C@H](O)[C@@H]8O)[C@@H](O)[C@H](O)[C@H]7NC(C)=O)C(C)(C)[C@@H]6CC[C@@]5(C)[C@]3(C)CC4)nn2)cc1 | 20 | 12.2 | 19.7 | 20.7 | 19.7
CC(=O)N[C@H]1[C@H](O[C@H]2CC[C@]3(C)[C@H]4CC=C5[C@@H]6CC(C)(C)CC[C@]6(C(=O)OCc6cn(-c7ccc(C(F)(F)F)cc7)nn6)CC[C@@]5(C)[C@]4(C)CC[C@H]3C2(C)C)O[C@H](CO[C@@H]2OC[C@H](O)[C@H](O)[C@@H]2O)[C@@H](O)[C@@H]1O | 12.4 | 11.8 | 15.1 | 14.2 | 12.8
CC(=O)N[C@H]1[C@H](O[C@H]2CC[C@]3(C)[C@H]4CC=C5[C@@H]6CC(C)(C)CC[C@]6(C(=O)OCc6cn(-c7cccc(C#N)c7)nn6)CC[C@@]5(C)[C@]4(C)CC[C@H]3C2(C)C)O[C@H](CO[C@@H]2OC[C@H](O)[C@H](O)[C@@H]2O)[C@@H](O)[C@@H]1O | 27 | 27.7 | 27.7 | 29.2 | 28.8
CC(=O)N[C@H]1[C@H](O[C@H]2CC[C@]3(C)[C@H]4CC=C5[C@@H]6CC(C)(C)CC[C@]6(C(=O)OCc6cn(-c7cccc(C)c7)nn6)CC[C@@]5(C)[C@]4(C)CC[C@H]3C2(C)C)O[C@H](CO[C@@H]2OC[C@H](O)[C@H](O)[C@@H]2O)[C@@H](O)[C@@H]1O | 7.1 | 10.6 | 20.2 | 14.5 | 11
CC(=O)N[C@H]1[C@H](O[C@H]2CC[C@]3(C)[C@H]4CC=C5[C@@H]6CC(C)(C)CC[C@]6(C(=O)OCc6cn(-c7cccc([N+](=O)[O-])c7)nn6)CC[C@@]5(C)[C@]4(C)CC[C@H]3C2(C)C)O[C@H](CO[C@@H]2OC[C@H](O)[C@H](O)[C@@H]2O)[C@@H](O)[C@@H]1O | 27.1 | 33.3 | 25.8 | 37.2 | 37.8
CC(=O)N[C@H]1[C@H](O[C@H]2CC[C@]3(C)[C@H]4CC=C5[C@@H]6CC(C)(C)CC[C@]6(C(=O)OCc6cn(-c7ccc(C)cc7C)nn6)CC[C@@]5(C)[C@]4(C)CC[C@H]3C2(C)C)O[C@H](CO[C@@H]2OC[C@H](O)[C@H](O)[C@@H]2O)[C@@H](O)[C@@H]1O | 47.6 | 40.4 | 44.6 | 42.3 | 46.9
COc1cccc(-n2cc(COC(=O)[C@]34CCC(C)(C)C[C@H]3C3=CC[C@@H]5[C@@]6(C)CC[C@H](O[C@@H]7O[C@H](CO[C@@H]8OC[C@H](O)[C@H](O)[C@@H]8O)[C@@H](O)[C@H](O)[C@H]7NC(C)=O)C(C)(C)[C@@H]6CC[C@@]5(C)[C@]3(C)CC4)nn2)c1 | 12.4 | 6.47 | 20.9 | 13.3 | 11.6
CC(=O)N[C@H]1[C@H](O[C@H]2CC[C@]3(C)[C@H]4CC=C5[C@@H]6CC(C)(C)CC[C@]6(C(=O)OCc6cn(-c7ccc(C(C)=O)cc7)nn6)CC[C@@]5(C)[C@]4(C)CC[C@H]3C2(C)C)O[C@H](CO[C@@H]2OC[C@H](O)[C@H](O)[C@@H]2O)[C@@H](O)[C@@H]1O | 12.8 | 11.5 | 14.8 | 14 | 17.1
O=c1[nH]cc(F)c(=O)[nH]1 [FLUOROURACIL] | 38.3 | 48 |  | 71.1 | 31
